The values that follow come from patent US20070197590A1, “SUBSTITUTED DIPIPERIDINE CCR2 ANTAGONISTS” (priority 2006, published 2007).

The term IC50 denotes the point on the concentration scale where inhibition reaches its midpoint.

SMILES strings stand for the structures.

Assay [1] addresses T1, CCR2 (Homo sapiens, UniProt P41597).
T1 construct: host or cells: THP-1 cells
T1 sequence (P41597 1-360 isoform P41597-2): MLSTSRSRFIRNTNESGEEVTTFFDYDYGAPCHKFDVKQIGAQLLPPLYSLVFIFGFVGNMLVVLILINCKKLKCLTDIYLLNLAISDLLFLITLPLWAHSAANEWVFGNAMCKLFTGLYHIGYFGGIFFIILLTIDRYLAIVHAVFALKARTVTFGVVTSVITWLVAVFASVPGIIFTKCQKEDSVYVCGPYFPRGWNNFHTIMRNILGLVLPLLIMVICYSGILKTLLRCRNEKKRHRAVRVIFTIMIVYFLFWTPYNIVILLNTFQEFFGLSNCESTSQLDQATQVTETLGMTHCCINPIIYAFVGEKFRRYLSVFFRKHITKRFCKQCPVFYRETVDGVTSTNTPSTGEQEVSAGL
The experiment in a line: MCP-1 Receptor Binding Assay in THP-1 Cells. The note with it: THP-1 cells, 0.5 nM 125I labeled MCP-1, 2 hours at 30° C.; read-out: Inhibition of MCP-1 Binding IC50. Summed up: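 Whole THP-1 cells incubated 2 h at 30° C with 0.5 nM 125I-MCP-1 and varying compound concentrations; bound radioactivity harvested on filters and counted by scintillation. Nonspecific binding with 1 μM cold MCP-1; IC50 for inhibition of binding versus vehicle.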

Assay [2] has as its system MCP-1 induced calcium ion influx in THP-1 cells. Briefly: MCP-1 Induced Calcium Mobilization in THP-1 Cells. Type of assay: cell-based. As to conditions: Homo sapiens, THP-1, THP-1 cells, 0.2 μM MCP-1, FLIPR; read-out: Inhibition of MCP-1 Induced Calcium Ion Influx IC50. Summed up:
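Fluo-3-loaded (5 μM, 45 min) THP-1 cells preincubated 15 min with compound. Calcium change after 0.2 μM MCP-1 addition read by FLIPR relative to vehicle; IC50 values derived.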
In general terms: Calcium flux is commonly read through the fluorescence of an indicator in the cells.

For assay [3], the system named is MCP-1 induced chemotaxis of THP-1 cells. The experiment in a line: MCP-1 Induced Chemotaxis in THP-1 Cells. As to conditions: Homo sapiens, MCP-1 0.01 μg/mL, 3 hours at 37° C., read-out: Inhibition of MCP-1 Induced Chemotaxis IC50. The class given is cell-based. On the procedure: MCP-1 induced chemotaxis was run in a 24-well chemotaxis chamber. MCP-1 (0.01 μg/mL) was added to the lower chamber and 100 μL of THP-1 cells (1×10^7 cell/mL) was added to the top chamber. Varying concentrations of test compound were added to the top and bottom chambers. Cells were allowed to chemotax for 3 hours at 37° C. and 5% CO2. An aliquot of the cells that had migrated to the bottom chamber was taken and counted then compared to vehicle.
Table 3 lists IC50 values for inhibition of MCP-1 induced chemotaxis.

In the case of `O=C(Nc1ccc(Cl)c(Cl)c1)N1CCC(C(O)CN2CCC(c3c[nH]c4ncccc34)CC2)CC1` (stereo not drawn) [Compound 24, 4-{1-hydroxy-2-[4-(1H-pyrrolo[2,3-b]pyridin-3-yl)-piperidin-1-yl]-ethyl}-piperidine-1-carboxylic acid (3,4-dichloro-phenyl)-amide], the figures for the IC50 in assay [1], in assay [2] and in assay [3] were 70 nM, 120 nM and 70 nM, respectively.

`CSc1ccc(NC(=O)N2CCC(C(O)CN3CCC(c4c[nH]c5ncccc45)CC3)CC2)cc1` (stereo not drawn) [Compound 25, 4-{1-hydroxy-2-[4-(1H-pyrrolo[2,3-b]pyridin-3-yl)-piperidin-1-yl]-ethyl}-piperidine-1-carboxylic acid (4-methylsulfanyl-phenyl)-amide]: the IC50 in assay [1] was 810 nM; in assay [2], 1500 nM; in assay [3] it was 640 nM.

With `COc1ccc2[nH]cc(C3CCN(CC(O)C4CCN(C(=O)/C=C/c5cc(F)cc(F)c5)CC4)CC3)c2c1` (stereo not drawn) [Compound 26], the IC50 in assay [1] came out at 70 nM; in assay [2] it was 370 nM; in assay [3] it was 20 nM.

For the compound `CS(=O)(=O)Nc1ccc2[nH]cc(C3CCN(CC(O)C4CCN(C(=O)/C=C/c5cc(F)c(F)c(F)c5)CC4)CC3)c2c1` (stereo not drawn) [Compound 27], the IC50 in assay [1] stood at 10 nM; in assay [2] it was 8 nM; in assay [3], 10 nM.

In the case of `CS(=O)(=O)Nc1ccc2[nH]cc(C3CCN(CC(N)C4CCN(C(=O)C=Cc5cc(F)c(F)c(F)c5)CC4)CC3)c2c1` (stereo not drawn) [Compound 28, N-{3-[1-(2-amino-2-{1-[3-(3,4,5-trifluoro-phenyl)-acryloyl]-piperidin-4-yl}-ethyl)-piperidin-4-yl]-1H-indol-5-yl}-methanesulfonamide], the IC50 in assay [1] was 250 nM; in assay [2] it was 310 nM; in assay [3], 370 nM.

Turning to `COc1ccc(C2CCN(CC(O)C3CCN(C(=O)/C=C/c4cccc(C)c4)CC3)CC2)cc1` (stereo not drawn) [Compound 29], the figures for the IC50 in assay [1], in assay [2] and in assay [3] were 70 nM, 90 nM and 70 nM, respectively.

As for `COc1ccc(C2CCN(CC(O)C3CCN(C(=O)/C=C/c4cccc(C(F)(F)F)c4)CC3)CC2)cc1` (stereo not drawn) [Compound 30], the IC50 in assay [1] worked out at 50 nM; in assay [2], 220 nM; in assay [3] it was 60 nM.

Regarding `COc1ccc(C2CCN(CC(O)C3CCN(C(=O)/C=C/c4ccc(F)c(F)c4)CC3)CC2)cc1` (stereo not drawn) [Compound 32], the 50% inhibitory concentration (IC50) is 70 nM in assay [1], 80 nM in assay [2] and 100 nM in assay [3].

As for `O=C(/C=C/c1cc(F)cc(F)c1)N1CCC(C(O)CN2CCC(c3cc[nH]n3)CC2)CC1` (stereo not drawn) [Compound 34], the IC50 came to 570 nM in assay [1], 10900 nM in assay [2] and 840 nM in assay [3].

`Cc1cccc(C=CC(=O)N2CCC(C(O)CN3CCC(c4c[nH]c5ccc(NS(C)(=O)=O)cc45)CC3)CC2)c1` (stereo not drawn) [Compound 40, N-[3-(1-{2-hydroxy-2-[1-(3-m-tolyl-acryloyl)-piperidin-4-yl]-ethyl}-piperidin-4-yl)-1H-indol-5-yl]-methanesulfonamide]: the IC50 in assay [1] is 80 nM; in assay [2], 170 nM; in assay [3] it was 30 nM.

For `CS(=O)(=O)Nc1ccc2[nH]cc(C3CCN(CC(O)C4CCN(C(=O)C=Cc5cc(F)cc(F)c5)CC4)CC3)c2c1` (stereo not drawn) [Compound 41, N-{3-[1-(2-{1-[3-(3,5-difluoro-phenyl)-acryloyl]-piperidin-4-yl}-2-hydroxy-ethyl)-piperidin-4-yl]-1H-indol-5-yl}-methanesulfonamide], the half-inhibitory concentration (IC50) in assay [1] worked out at 40 nM; in assay [2], 90 nM; in assay [3] it was 20 nM.

In the case of `COc1ccc(C2CCN(CC(CO)C3CCN(C(=O)/C=C/c4ccc(Cl)c(Cl)c4)CC3)CC2)cc1` (stereo not drawn) [Compound 43], the concentration for half-maximal inhibition (IC50) in assay [1] worked out at 590 nM; in assay [2] it was 180 nM; in assay [3], 90 nM.

Regarding `COc1ccc(C2CCN(CC(CO)C3CCN(C(=O)/C=C/c4cc(F)cc(F)c4)CC3)CC2)cc1` (stereo not drawn) [Compound 45], the IC50 in assay [1] was found to be 120 nM; in assay [2], 150 nM; in assay [3], 170 nM.

Take `O=C(O)C(CC1CCN(C(=O)C=Cc2ccc(Cl)c(Cl)c2)CC1)N1CCC(c2c[nH]c3ccccc23)CC1` (stereo not drawn) [Compound 60, 3-{1-[3-(3,4-dichloro-phenyl)-acryloyl]-piperidin-4-yl}-2-[4-(1H-indol-3-yl)-piperidin-1-yl]-propionic acid]: the IC50 was 310 nM in assay [1], 380 nM in assay [2] and 290 nM in assay [3].

In the case of `O=C(O)C(CC1CCN(C(=O)C=Cc2cc(F)cc(F)c2)CC1)N1CCC(c2c[nH]c3ccccc23)CC1` (stereo not drawn) [Compound 61, 3-{1-[3-(3,5-difluoro-phenyl)-acryloyl]-piperidin-4-yl}-2-[4-(1H-indol-3-yl)-piperidin-1-yl]-propionic acid], the IC50 in assay [1] came out at 830 nM; in assay [2], 2800 nM; in assay [3], 240 nM.

Regarding `COc1ccc(C2CCN(CC(N)C3CCN(C(=O)/C=C/c4cc(F)c(F)c(F)c4)CC3)CC2)cc1` (stereo not drawn) [Compound 65], the IC50 in assay [1] turned out to be 80 nM; in assay [2] it was 40 nM; in assay [3] it was 250 nM.

As to `COC(=O)NC(CN1CCC(c2ccc(OC)cc2)CC1)C1CCN(C(=O)C=Cc2cc(F)c(F)c(F)c2)CC1` (stereo not drawn) [Compound 67, (2-[4-(4-methoxy-phenyl)-piperidin-1-yl]-1-{1-[3-(3,4,5-trifluoro-phenyl)-acryloyl]-piperidin-4-yl}-ethyl)-carbamic acid methyl ester], the IC50 was 240 nM in assay [1], 300 nM in assay [2] and 700 nM in assay [3].

Turning to `O=C(/C=C/c1cc(F)c(F)c(F)c1)N1CCC(O)(C(O)CN2CCC(c3c[nH]c4ccccc34)CC2)CC1` (stereo not drawn) [Compound 70], the values for the IC50 in assay [1], in assay [2] and in assay [3] were 180 nM, 80 nM and 10 nM, respectively.

Turning to `O=C(/C=C/c1cc(Cl)cc(Cl)c1)N1CCC(O)(C(O)CN2CCC(c3c[nH]c4ccccc34)CC2)CC1` (stereo not drawn) [Compound 73], the results for the concentration for half-maximal inhibition (IC50) in assay [1], in assay [2] and in assay [3] were 130 nM, 1 nM and 30 nM, respectively.

As to `O=C(/C=C/c1cc(F)cc(Cl)c1)N1CCC(O)(C(O)CN2CCC(c3c[nH]c4ccccc34)CC2)CC1` (stereo not drawn) [Compound 74], the figures for the IC50 in assay [1], in assay [2] and in assay [3] were 40 nM, 2 nM and 80 nM, respectively.

Turning to `O=C(/C=C/c1ccc(Cl)c(Cl)c1)N1CCC(O)(C(O)CN2CCC(c3c[nH]c4ccccc34)CC2)CC1` (stereo not drawn) [Compound 75], the IC50 in assay [1] is 350 nM; in assay [2], 5 nM; in assay [3], 30 nM.

Take `O=C(/C=C/c1ccc(F)c(F)c1)N1CCC(O)(C(O)CN2CCC(c3c[nH]c4ccccc34)CC2)CC1` (stereo not drawn) [Compound 78]: the IC50 was determined as 370 nM in assay [1], 40 nM in assay [2] and 210 nM in assay [3].

For the compound `O=C(/C=C/c1ccc(F)c(Br)c1)N1CCC(O)(C(O)CN2CCC(c3c[nH]c4ccccc34)CC2)CC1` (stereo not drawn) [Compound 80], the IC50 in assay [1] was found to be 200 nM; in assay [2] it was 6 nM; in assay [3] it was 90 nM.

On to `O=C(/C=C/c1ccc(Cl)c(Cl)c1)N1CCC(C(O)CN2CCC(c3nc4ccccc4[nH]3)CC2)CC1` (stereo not drawn) [Compound 85], for which the IC50 was 150 nM in assay [1], 6 nM in assay [2] and 40 nM in assay [3].

For the compound `O=C(/C=C/c1cc(F)c(F)c(F)c1)N1CCC(C(O)CN2CCC(c3nc4ccccc4[nH]3)CC2)CC1` (stereo not drawn) [Compound 86], the IC50 in assay [1] stood at 80 nM; in assay [2] it was 70 nM; in assay [3], 50 nM.

With `COc1ccc(C2CCN(CC(O)C3(O)CCN(C(=O)/C=C/c4cc(F)c(F)c(F)c4)CC3)CC2)cc1` (stereo not drawn) [Compound 88], the 50% inhibitory concentration (IC50) in assay [1] stood at 170 nM; in assay [2], 980 nM; in assay [3] it was 30 nM.

With `COc1ccc(C2CCN(CC(O)C3(O)CCN(C(=O)/C=C/c4ccc(F)c(F)c4)CC3)CC2)cc1` (stereo not drawn) [Compound 93], the figures for the IC50 in assay [1], in assay [2] and in assay [3] were 310 nM, 9200 nM and 120 nM, respectively.

On to `COc1ccc(C2CCN(CC(O)C3(O)CCN(C(=O)/C=C/c4cc(F)cc(F)c4)CC3)CC2)cc1` (stereo not drawn) [Compound 94], for which the IC50 in assay [1] was determined as 350 nM; in assay [2], 900 nM; in assay [3], 100 nM.

As for `COc1ccc(C2CCN(CC(O)C3CCN(C(=S)Nc4cc(F)cc(F)c4)CC3)CC2)cc1` (stereo not drawn) [Compound 107, 4-{1-hydroxy-2-[4-(4-methoxy-phenyl)-piperidin-1-yl]-ethyl}-piperidine-1-carbothioic acid (3,5-difluoro-phenyl)-amide], the values for the half-inhibitory concentration (IC50) in assay [1], in assay [2] and in assay [3] were 290 nM, 4300 nM and 40 nM, respectively.
